Patent US9187474B2, “Raf inhibitor compounds” (Deciphera Pharmaceuticals, LLC, priority 2012, dated 2015)

Tests used:
[1] = biological target: A-Raf (Homo sapiens (Human), UniProt P10398); assay: ActivX KiNativ A375 whole cell lysate assay; assay type: binding
Procedure: (§1) To further evaluate the enzymatic pan Raf activities of test compounds, they are evaluated in a KiNativ assay developed and carried out by ActivX Biosciences Inc. using whole cell lysates of A375 cells. A375 cells are human melanoma cells with a B-Raf V600E mutation.
(§2) Sample preparation: A375 cells from ATCC are lysed by sonication in commercially available lysis buffer, cleared by centrifugation, and the resulting supernatant gel filtered into a commercially available kinase reaction buffer containing 20 mM MnCl2. Final protein concentration of lysates are 10 mg/mL. 5 μL of each test compound is added from 100 μM, 10 μM, 1 μM, or 0.1 μM stock solutions in DMSO to 500 uL of lysate in duplicate for final concentrations of 1 μM, 0.1 μM, 0.01 μM, and 0.001 μM. 5 μL of DMSO is added to 500 μL of lysate in quadruplicate for controls. After 15 minute incubation, desthiobiotin-ATP acylphosphate probe is added to each sample to a final concentration of 5 μM and incubated with the samples for 10 minutes. Following the probe reaction, samples are prepared for targeted mass spectrum analysis using ActivX standard protocol. Briefly, samples are prepared for trypsin digestion (denature, reduce alkylate), digested with trypsin, and desthio-biotinylated peptides are enriched on streptavidin resin.
(§3) Data collection: Enriched peptide samples are analyzed by LC-MS/MS on a Thermo-LTQ Velos ion trap mass spectrometer using ActivX data collection methodology for A375 cells.
(§4) Data analysis: All quantitation is performed by extracting characteristic fragment ion signals from targeted MS/MS spectra and comparing signals in control and treated samples. ActivX software is used with manual validation/visual inspection performed as needed based on data flagging/filtering measures. All inhibition data points are visually verified, as are all data points showing variability outside of normal limits.

[2] = biological target: B-Raf (V600E) (Homo sapiens (Human), UniProt P15056, V600E); assay: ActivX KiNativ A375 whole cell lysate assay; assay type: binding
Procedure: as §1, §2, §3, §4

[3] = biological target: C-Raf (Homo sapiens (Human), UniProt P04049); assay: ActivX KiNativ A375 whole cell lysate assay; assay type: binding
Procedure: as §1, §2, §3, §4

[4] = test system: A-Raf, B-RafV600E and C-Raf; assay: ActivX KiNativ A375 whole cell lysate assay, summary over Raf isoforms; assay type: binding, human; settings: A375 cells; summary of Table 1
Procedure: as §1
as §2, with “Following the probe reaction, samples are prepared for targeted mass spectrum analysis using ActivX standard protocol. Briefly, samples are prepared for trypsin digestion (denature, reduce alkylate), digested with trypsin, and desthio-biotinylated peptides are enriched on streptavidin resin.” left out
as §3
Data analysis: All quantitation is performed by extracting characteristic fragment ion signals from targeted MS/MS spectra and comparing signals in control and treated samples. […]

[5] = test system: phospho-ERK in HCT-116 cells; assay: HCT-116 cell pERK assay (AlphaScreen SureFire); assay type: cell-based; settings: Homo sapiens; HCT-116 cells, B-Raf wild type, K-Ras mutation; 4 hours; read-out: IC50 reduction of phospho-ERK signal
How it was run: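 HCT-116 cells (wild-type B-Raf, mutant K-Ras) plated overnight, then treated with compound for 4 h at 37 °C in complete McCoy's 5A with 10% FBS (0.25% final DMSO). Lysate pERK read by AlphaScreen SureFire, 2 h acceptor then 2 h donor beads at room temperature; IC50 fitted from concentration–response.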

[6] = test system: phospho-ERK in A375 (B-Raf V600E) xenograft; assay: A375 mouse xenograft pharmacodynamic assay (tumor pERK by ELISA); assay type: in vivo, mice; settings: A-375, 20 mg/kg oral, 2 h post dose, vs vehicle, read-out: Measured pERK inhibition 2 h post dose
Procedure: To evaluate the in vivo pharmacodynamic (PD) effects of compounds of Formula I, an A375 (B-Raf V600E) xenograft model is employed. Briefly, 10×10^6 A375 tumor cells (ATCC) are prepared in a 1:1 matrigel mix (0.2 mL total volume) and implanted by subcutaneous injection in hind leg of nude female mice. A total of 4 mice each for each dosing group are employed. Treatment is initiated with oral administration (gavage) of test compound or vehicle (20% captisol, 25 mM phosphate, pH2.0) in 0.2 mL volume when average tumor size reaches approximately 300 mg. After a fixed time interval, the tumors are harvested and the phospho-ERK levels are measured by ELISA (Enzyme-linked immunosorbent assay). Treated groups are compared to the vehicle control group to calculate % inhibition.

[7] = test system: A375 xenograft tumor; assay: A375 mouse xenograft efficacy model; assay type: in vivo, mice; settings: oral, twice a day at 12 mg/kg or thrice per day at 8 or 12 mg/kg, 21 days
Procedure: (§5) To further evaluate in vivo activity of compounds of Formula I, an A375 xenograft tumor model is utilized. Briefly, 10×10^6 cells in a 1:1 matrigel mix (0.2 mL total volume) are implanted by subcutaneous injection in the hind leg of nude female mice. A total of 8-10 mice in each group are used. Treatment is initiated with oral administration (gavage) of a test compound or vehicle (20% captisol, 25 mM phosphate, pH2.0) in 0.2 mL volume when tumor size reaches approximately 300-500 mg. Test compound is orally dosed twice or thrice a day for 21 days. Tumor growth and body weight are monitored over time to evaluate efficacy and signs of toxicity. Bidimensional measurements of tumors are performed twice a week and tumor volumes are calculated based on the following formula: (Tumor Volume)=[(L)×(W^2)×(π/6)] where L is mid-axis length and W is mid-axis width. Tumor volume data are transformed to a log scale to equalize variance across time and treatment groups. The log volume data are analyzed with a two-way repeated measures analysis of variance by time and treatment using the MIXED procedures in SAS software (version 8.2). The correlation model for the repeated measures is spatial power. Treated groups are compared to the control group at each time point. The MIXED procedure is also used separately for each treatment group to calculate adjusted means and standard errors at each time point. Both analyses account for the autocorrelation within each animal and the loss of data that occurs when animals with large tumors are removed from the study early. The adjusted means and standard errors are plotted for each treatment group versus time.

[8] = Body weight in A375 mouse xenograft efficacy model; assay type: in vivo, mice; settings: oral, twice a day at 12 mg/kg or thrice per day at 8 or 12 mg/kg, 21 days
Procedure: as §5

B-Raf (V600E), sequence (P15056 whole entry V600E): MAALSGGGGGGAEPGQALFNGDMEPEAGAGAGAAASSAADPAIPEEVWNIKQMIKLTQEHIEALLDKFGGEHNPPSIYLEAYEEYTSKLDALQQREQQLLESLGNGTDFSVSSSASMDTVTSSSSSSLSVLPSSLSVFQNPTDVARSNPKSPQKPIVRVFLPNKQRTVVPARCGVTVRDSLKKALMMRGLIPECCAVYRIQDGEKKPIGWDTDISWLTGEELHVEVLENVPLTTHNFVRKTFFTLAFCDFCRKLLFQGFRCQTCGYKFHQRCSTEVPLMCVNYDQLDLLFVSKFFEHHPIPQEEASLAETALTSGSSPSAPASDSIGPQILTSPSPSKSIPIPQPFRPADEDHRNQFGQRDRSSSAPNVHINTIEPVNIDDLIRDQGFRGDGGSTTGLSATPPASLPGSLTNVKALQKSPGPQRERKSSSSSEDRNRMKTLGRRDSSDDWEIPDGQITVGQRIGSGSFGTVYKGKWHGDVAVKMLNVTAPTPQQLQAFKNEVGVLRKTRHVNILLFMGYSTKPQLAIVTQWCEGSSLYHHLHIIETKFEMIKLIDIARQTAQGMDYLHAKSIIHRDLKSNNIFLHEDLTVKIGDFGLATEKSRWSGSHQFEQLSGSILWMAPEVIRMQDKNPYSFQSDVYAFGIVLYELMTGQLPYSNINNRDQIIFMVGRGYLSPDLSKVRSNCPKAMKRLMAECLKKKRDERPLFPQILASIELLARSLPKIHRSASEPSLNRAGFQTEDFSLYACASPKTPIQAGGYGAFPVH
C-Raf, sequence (P04049 whole entry): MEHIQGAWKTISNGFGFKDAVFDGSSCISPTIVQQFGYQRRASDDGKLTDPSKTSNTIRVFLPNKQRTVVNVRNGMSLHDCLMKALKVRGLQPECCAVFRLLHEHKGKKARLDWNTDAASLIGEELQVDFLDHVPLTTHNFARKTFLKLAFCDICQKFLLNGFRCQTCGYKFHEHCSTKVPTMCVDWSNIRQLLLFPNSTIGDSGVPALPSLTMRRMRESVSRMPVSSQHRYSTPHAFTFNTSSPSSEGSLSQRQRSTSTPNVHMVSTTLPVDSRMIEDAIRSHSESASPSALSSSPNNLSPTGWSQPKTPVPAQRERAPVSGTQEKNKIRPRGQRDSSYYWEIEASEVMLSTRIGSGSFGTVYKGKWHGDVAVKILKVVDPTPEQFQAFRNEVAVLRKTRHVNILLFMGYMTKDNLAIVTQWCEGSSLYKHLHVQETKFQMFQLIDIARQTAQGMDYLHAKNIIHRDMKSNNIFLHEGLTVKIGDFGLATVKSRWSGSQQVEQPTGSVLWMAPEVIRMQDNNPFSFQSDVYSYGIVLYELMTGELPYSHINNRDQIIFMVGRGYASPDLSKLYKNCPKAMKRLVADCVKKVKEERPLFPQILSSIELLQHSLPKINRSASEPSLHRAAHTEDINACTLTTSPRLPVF
A-Raf, sequence (P10398 whole entry): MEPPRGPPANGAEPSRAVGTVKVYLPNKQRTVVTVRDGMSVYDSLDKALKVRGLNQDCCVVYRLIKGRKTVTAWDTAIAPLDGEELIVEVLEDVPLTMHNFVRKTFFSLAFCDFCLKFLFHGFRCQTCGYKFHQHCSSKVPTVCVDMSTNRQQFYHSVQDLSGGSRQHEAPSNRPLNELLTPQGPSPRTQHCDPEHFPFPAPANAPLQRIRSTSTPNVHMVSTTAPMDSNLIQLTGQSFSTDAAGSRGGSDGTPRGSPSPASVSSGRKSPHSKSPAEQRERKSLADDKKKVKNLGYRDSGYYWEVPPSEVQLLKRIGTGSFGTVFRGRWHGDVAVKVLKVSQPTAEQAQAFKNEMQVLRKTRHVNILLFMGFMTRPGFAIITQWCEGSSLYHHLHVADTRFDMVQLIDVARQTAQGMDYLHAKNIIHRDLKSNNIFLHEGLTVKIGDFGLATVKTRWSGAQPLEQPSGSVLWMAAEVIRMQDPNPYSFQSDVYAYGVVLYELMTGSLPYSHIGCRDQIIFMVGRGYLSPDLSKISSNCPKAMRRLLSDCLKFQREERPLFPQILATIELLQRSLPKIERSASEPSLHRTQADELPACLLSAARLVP

## CNc1cc2nc(C)c(-c3cc(NC(=O)NCCC(C)(C)C)c(F)cc3F)cc2cn1 [Example 18, 1-(2,4-difluoro-5-(2-methyl-7-(methylamino)-1,6-naphthyridin-3-yl)phenyl)-3-(3,3-dimethylbutyl)urea]
[1]
  IC50: 0.031 µM
[2]; first B-Raf (V600E) column
  IC50: 0.035 µM
[2]; second B-Raf (V600E) column
  IC50: 0.037 µM
[3]
  IC50: 0.02 µM
[4]
  IC50: < 0.17 µM
[5]
  IC50: 0.002 to 0.096 µM
[6]
  inhibition in vivo at 20 mg/kg: 93%
[7]
  tumor growth: tumor growth inhibition
[8]
  animal body weight loss: minimal animal body weight loss
